Values of other authors in US7064109B2, “Pharmaceutical composition based on macrolides for topical application in ophthalmology” (priority 2001, dated 2006).

System: all sensitive microorganisms

CC[C@H]1OC(=O)[C@H](C)[C@@H](O[C@H]2C[C@@](C)(OC)[C@@H](O)[C@H](C)O2)[C@H](C)[C@@H](O[C@@H]2O[C@H](C)C[C@H](N(C)C)[C@H]2O)[C@](C)(O)C[C@@H](C)CN(C)[C@H](C)[C@@H](O)[C@]1(C)O [azithromycin, N-methyl-11-aza-10-deoxo-10-dihydroerythromycin]
minimum level for eliminating microorganisms (conjunctival level): 0.25 µg/g
minimum inhibitory concentration (minimum concentration for therapeutic effectiveness in the eyes, all sensitive microorganisms): 0.5 µg/g
